How the values were obtained:
[1] = biological target: Cyclin-dependent kinase 4 (Homo sapiens) (UniProt P11802); conditions: Compound concentration 1000.0 nM
[2] = biological target: Receptor tyrosine-protein kinase erbB-2 (Homo sapiens) (UniProt P04626); conditions: Compound concentration 1000.0 nM
[3] = biological target: Serine/threonine-protein kinase TNNI3K (Homo sapiens) (UniProt Q59H18); conditions: Compound concentration 1000.0 nM
[4] = biological target: Mitogen-activated protein kinase 8 (Homo sapiens) (UniProt P45983); conditions: Compound concentration 1000.0 nM
[5] = biological target: Activin receptor type-1 (Homo sapiens) (UniProt Q04771); conditions: Compound concentration 1000.0 nM
[6] = biological target: Cyclin-dependent kinase 18 (Homo sapiens) (UniProt Q07002); conditions: Compound concentration 1000.0 nM
Chain of Cyclin-dependent kinase 18 (Homo sapiens) (Q07002 whole entry): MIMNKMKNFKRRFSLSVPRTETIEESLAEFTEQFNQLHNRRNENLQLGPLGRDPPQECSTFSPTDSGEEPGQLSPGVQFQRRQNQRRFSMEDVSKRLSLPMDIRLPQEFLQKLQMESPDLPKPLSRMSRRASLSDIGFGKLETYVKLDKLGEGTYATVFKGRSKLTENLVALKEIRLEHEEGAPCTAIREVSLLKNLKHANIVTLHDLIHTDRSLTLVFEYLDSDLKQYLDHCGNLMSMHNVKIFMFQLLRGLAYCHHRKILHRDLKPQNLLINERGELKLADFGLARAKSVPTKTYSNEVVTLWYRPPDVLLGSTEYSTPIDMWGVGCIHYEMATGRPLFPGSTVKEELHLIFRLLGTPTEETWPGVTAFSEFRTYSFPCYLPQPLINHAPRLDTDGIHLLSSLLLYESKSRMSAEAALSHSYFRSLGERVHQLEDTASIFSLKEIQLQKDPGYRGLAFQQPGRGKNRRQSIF

[7] = biological target: G protein-coupled receptor kinase 3 (Homo sapiens) (UniProt P35626); conditions: Compound concentration 1000.0 nM
[8] = biological target: Serine/threonine-protein kinase WNK1 (Homo sapiens) (UniProt Q9H4A3); conditions: Compound concentration 1000.0 nM
[9] = biological target: Dual specificity mitogen-activated protein kinase kinase 1 (Homo sapiens) (UniProt Q02750); conditions: Compound concentration 1000.0 nM
[10] = biological target: Tyrosine-protein kinase CSK (Homo sapiens) (UniProt P41240); conditions: Compound concentration 1000.0 nM
[11] = biological target: Serine/threonine-protein kinase Nek9 (Homo sapiens) (UniProt Q8TD19); conditions: Compound concentration 1000.0 nM
[12] = biological target: Non-receptor tyrosine-protein kinase TNK1 (Homo sapiens) (UniProt Q13470); conditions: Compound concentration 1000.0 nM
[13] = biological target: Serine/threonine-protein kinase Sgk3 (Homo sapiens) (UniProt Q96BR1); conditions: Compound concentration 1000.0 nM
[14] = biological target: Cyclin-dependent kinase 19 (Homo sapiens) (UniProt Q9BWU1); conditions: Compound concentration 1000.0 nM
[15] = biological target: Histamine H4 receptor (Homo sapiens) (UniProt Q9H3N8); conditions: Compound concentration 10.0 uM
Chain of Histamine H4 receptor (Homo sapiens) (Q9H3N8 whole entry, canonical isoform): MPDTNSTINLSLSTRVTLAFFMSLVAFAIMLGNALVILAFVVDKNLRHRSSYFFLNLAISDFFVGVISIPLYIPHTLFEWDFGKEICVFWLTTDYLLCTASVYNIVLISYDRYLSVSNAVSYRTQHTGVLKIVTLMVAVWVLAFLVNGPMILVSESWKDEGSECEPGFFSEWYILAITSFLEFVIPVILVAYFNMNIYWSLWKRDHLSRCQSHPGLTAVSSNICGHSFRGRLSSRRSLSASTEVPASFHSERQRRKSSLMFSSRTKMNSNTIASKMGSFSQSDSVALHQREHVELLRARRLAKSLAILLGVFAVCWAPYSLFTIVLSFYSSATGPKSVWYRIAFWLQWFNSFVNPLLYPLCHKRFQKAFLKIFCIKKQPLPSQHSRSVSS

[16] = biological target: Casein kinase I isoform delta (Homo sapiens) (UniProt P48730); conditions: Compound concentration 1000.0 nM
[17] = tested on: Epidermal growth factor receptor (Homo sapiens), P00533 [UNDEFINED MUTATION]; conditions: Compound concentration 1000.0 nM
Chain of Epidermal growth factor receptor (Homo sapiens), P00533 [UNDEFINED MUTATION] (P00533 whole entry, looked up, change not shown): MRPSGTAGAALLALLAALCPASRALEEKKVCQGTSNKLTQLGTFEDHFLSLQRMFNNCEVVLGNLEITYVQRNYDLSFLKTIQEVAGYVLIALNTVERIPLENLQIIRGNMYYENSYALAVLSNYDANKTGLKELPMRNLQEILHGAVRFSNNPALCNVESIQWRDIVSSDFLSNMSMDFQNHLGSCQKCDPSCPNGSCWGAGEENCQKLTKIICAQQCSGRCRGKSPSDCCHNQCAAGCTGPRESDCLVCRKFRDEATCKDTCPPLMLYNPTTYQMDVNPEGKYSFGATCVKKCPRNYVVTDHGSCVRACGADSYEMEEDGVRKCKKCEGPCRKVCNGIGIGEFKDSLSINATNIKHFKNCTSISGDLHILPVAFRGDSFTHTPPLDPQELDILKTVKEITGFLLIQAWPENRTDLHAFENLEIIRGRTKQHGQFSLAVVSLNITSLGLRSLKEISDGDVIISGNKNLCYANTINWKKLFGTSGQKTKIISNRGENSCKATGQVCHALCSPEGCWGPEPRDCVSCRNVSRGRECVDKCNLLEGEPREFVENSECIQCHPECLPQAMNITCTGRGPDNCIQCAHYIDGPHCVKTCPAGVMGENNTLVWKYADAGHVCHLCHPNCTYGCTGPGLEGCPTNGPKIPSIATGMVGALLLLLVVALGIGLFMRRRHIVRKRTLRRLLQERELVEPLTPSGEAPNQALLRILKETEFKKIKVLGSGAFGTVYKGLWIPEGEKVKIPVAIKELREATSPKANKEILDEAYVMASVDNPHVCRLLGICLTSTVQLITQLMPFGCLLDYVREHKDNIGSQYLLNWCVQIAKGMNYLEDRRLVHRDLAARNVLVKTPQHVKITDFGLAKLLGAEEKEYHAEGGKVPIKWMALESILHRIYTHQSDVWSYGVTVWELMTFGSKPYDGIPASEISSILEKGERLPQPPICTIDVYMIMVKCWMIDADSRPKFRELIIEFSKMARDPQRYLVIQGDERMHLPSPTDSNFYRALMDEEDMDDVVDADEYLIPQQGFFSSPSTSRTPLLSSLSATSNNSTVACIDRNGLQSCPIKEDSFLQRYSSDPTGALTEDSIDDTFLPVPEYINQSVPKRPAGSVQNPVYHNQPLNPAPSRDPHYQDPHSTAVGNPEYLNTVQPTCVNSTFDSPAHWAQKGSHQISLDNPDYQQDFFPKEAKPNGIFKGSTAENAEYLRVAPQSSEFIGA

[18] = biological target: Serine/threonine-protein kinase tousled-like 1 (Homo sapiens) (UniProt Q9UKI8); conditions: Compound concentration 1000.0 nM
[19] = biological target: RAF proto-oncogene serine/threonine-protein kinase (Homo sapiens) (UniProt P04049); conditions: Compound concentration 1000.0 nM
[20] = biological target: Tyrosine-protein kinase Mer (Homo sapiens) (UniProt Q12866); conditions: Compound concentration 1000.0 nM
[21] = tested on: Tyrosine-protein kinase ABL1 (Homo sapiens), P00519 [Y253F]; conditions: Compound concentration 1000.0 nM
[22] = biological target: Serine/threonine-protein kinase Nek5 (Homo sapiens) (UniProt Q6P3R8); conditions: Compound concentration 1000.0 nM
[23] = biological target: Ribosomal protein S6 kinase alpha-1 (Homo sapiens) (UniProt Q15418); conditions: Compound concentration 1000.0 nM
Chain of Ribosomal protein S6 kinase alpha-1 (Homo sapiens) (Q15418 whole entry): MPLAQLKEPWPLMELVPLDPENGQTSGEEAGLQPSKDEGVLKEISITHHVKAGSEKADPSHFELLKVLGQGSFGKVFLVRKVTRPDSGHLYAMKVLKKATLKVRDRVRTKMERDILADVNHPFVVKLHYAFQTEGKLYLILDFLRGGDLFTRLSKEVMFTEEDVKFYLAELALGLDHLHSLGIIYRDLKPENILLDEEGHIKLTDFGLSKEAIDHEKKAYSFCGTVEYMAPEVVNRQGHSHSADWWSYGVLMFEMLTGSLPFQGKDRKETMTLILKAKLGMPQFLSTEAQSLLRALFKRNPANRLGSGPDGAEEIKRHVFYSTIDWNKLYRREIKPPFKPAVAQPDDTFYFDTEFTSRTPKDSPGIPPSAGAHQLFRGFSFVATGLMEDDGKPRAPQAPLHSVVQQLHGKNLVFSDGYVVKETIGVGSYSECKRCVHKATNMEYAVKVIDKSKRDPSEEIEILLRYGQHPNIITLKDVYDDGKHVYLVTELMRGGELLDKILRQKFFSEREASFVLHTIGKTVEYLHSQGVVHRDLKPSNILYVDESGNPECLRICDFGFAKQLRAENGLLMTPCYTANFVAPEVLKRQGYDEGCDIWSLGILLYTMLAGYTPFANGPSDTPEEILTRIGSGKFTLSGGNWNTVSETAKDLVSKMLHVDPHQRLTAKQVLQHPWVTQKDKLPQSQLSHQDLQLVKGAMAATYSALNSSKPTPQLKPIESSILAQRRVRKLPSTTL

[24] = biological target: Receptor-interacting serine/threonine-protein kinase 1 (Homo sapiens) (UniProt Q13546); conditions: Compound concentration 1000.0 nM
Chain of Receptor-interacting serine/threonine-protein kinase 1 (Homo sapiens) (Q13546 whole entry): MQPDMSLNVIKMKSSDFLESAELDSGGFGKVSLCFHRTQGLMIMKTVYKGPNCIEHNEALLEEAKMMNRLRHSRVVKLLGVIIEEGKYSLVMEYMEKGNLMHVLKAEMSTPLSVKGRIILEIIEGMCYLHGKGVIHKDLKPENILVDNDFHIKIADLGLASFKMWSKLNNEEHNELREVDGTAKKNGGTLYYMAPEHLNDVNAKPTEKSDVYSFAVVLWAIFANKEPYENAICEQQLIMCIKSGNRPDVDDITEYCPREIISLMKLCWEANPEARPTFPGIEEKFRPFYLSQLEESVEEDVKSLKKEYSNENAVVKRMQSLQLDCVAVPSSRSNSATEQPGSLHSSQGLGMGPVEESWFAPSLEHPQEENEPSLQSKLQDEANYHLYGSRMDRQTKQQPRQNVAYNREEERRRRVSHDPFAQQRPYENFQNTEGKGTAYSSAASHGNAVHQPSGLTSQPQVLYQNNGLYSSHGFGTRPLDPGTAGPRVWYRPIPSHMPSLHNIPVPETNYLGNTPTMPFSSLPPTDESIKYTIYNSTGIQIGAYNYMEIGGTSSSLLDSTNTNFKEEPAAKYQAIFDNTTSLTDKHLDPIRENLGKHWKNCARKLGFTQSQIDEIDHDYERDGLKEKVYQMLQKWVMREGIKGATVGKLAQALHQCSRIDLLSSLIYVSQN

[25] = biological target: Serine/threonine-protein kinase NIM1 (Homo sapiens) (UniProt Q8IY84); conditions: Compound concentration 1000.0 nM
[26] = biological target: Rhodopsin kinase GRK7 (Homo sapiens) (UniProt Q8WTQ7); conditions: Compound concentration 1000.0 nM
[27] = biological target: Ephrin type-B receptor 1 (Homo sapiens) (UniProt P54762); conditions: Compound concentration 1000.0 nM
[28] = biological target: Serine/threonine-protein kinase PLK3 (Homo sapiens) (UniProt Q9H4B4); conditions: Compound concentration 1000.0 nM
[29] = biological target: Bone morphogenetic protein receptor type-1A (Homo sapiens) (UniProt P36894); conditions: Compound concentration 1000.0 nM
[30] = biological target: STE20/SPS1-related proline-alanine-rich protein kinase (Homo sapiens) (UniProt Q9UEW8); conditions: Compound concentration 1000.0 nM
[31] = biological target: NUAK family SNF1-like kinase 1 (Homo sapiens) (UniProt O60285); conditions: Compound concentration 1000.0 nM
[32] = biological target: Bone morphogenetic protein receptor type-2 (Homo sapiens) (UniProt Q13873); conditions: Compound concentration 1000.0 nM
[33] = biological target: Tyrosine-protein kinase Fes/Fps (Homo sapiens) (UniProt P07332); conditions: Compound concentration 1000.0 nM
[34] = biological target: Mitogen-activated protein kinase 4 (Homo sapiens) (UniProt P31152); conditions: Compound concentration 1000.0 nM
Chain of Mitogen-activated protein kinase 4 (Homo sapiens) (P31152 whole entry): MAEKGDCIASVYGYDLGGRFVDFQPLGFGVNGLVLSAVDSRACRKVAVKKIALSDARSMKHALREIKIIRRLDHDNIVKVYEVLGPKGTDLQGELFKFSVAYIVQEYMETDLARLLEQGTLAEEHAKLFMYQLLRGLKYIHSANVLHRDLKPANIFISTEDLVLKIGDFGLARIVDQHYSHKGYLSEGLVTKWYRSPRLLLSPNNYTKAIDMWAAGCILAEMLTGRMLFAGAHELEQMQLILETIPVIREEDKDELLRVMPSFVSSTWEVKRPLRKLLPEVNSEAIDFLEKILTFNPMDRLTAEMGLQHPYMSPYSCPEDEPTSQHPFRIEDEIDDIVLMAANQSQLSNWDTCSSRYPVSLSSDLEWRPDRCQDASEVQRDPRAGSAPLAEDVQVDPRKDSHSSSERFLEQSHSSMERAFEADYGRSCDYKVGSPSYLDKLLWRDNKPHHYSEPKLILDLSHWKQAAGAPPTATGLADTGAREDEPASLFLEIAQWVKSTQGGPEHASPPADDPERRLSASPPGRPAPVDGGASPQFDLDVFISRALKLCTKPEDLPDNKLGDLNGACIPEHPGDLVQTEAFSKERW

[35] = biological target: AP2-associated protein kinase 1 (Homo sapiens) (UniProt Q2M2I8); conditions: Compound concentration 1000.0 nM
[36] = biological target: Dual specificity protein kinase CLK4 (Homo sapiens) (UniProt Q9HAZ1); conditions: Compound concentration 1000.0 nM
[37] = tested on: Phosphatidylinositol 4,5-bisphosphate 3-kinase catalytic subunit alpha isoform (Homo sapiens), P42336 [E545A]; conditions: Compound concentration 1000.0 nM
[38] = biological target: Cyclin-dependent kinase-like 1 (Homo sapiens) (UniProt Q00532); conditions: Compound concentration 1000.0 nM
Chain of Cyclin-dependent kinase-like 1 (Homo sapiens) (Q00532 whole entry): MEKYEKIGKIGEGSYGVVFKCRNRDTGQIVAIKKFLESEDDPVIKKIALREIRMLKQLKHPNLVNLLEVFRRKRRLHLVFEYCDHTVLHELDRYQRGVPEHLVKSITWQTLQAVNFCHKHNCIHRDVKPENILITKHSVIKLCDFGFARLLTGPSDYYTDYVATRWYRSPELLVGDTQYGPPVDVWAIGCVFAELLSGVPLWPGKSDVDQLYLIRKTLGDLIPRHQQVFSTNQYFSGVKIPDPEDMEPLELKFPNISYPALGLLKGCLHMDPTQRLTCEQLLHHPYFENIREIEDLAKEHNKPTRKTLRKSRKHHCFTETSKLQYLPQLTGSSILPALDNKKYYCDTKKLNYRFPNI

[39] = biological target: Tyrosine-protein kinase SYK (Homo sapiens) (UniProt P43405); conditions: Compound concentration 1000.0 nM
[40] = biological target: Ribosomal protein S6 kinase beta-1 (Homo sapiens) (UniProt P23443); conditions: Compound concentration 1000.0 nM
Chain of Ribosomal protein S6 kinase beta-1 (Homo sapiens) (P23443 whole entry, looked up): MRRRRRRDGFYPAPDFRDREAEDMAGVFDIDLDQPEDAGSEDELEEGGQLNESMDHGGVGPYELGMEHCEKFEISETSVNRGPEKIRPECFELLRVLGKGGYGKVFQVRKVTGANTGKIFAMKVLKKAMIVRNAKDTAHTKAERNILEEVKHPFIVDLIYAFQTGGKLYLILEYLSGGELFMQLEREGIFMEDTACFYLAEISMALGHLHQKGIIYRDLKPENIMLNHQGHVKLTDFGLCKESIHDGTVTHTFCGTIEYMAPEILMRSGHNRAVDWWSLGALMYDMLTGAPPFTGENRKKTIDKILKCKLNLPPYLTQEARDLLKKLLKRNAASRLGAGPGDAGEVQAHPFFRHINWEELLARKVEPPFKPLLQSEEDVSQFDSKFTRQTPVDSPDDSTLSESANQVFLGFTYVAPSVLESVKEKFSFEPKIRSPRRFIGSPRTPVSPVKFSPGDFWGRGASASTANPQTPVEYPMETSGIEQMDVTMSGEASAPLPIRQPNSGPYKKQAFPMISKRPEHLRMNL

[41] = biological target: Mitogen-activated protein kinase kinase kinase 4 (Homo sapiens) (UniProt Q9Y6R4); conditions: Compound concentration 1000.0 nM
[42] = biological target: SNF-related serine/threonine-protein kinase (Homo sapiens) (UniProt Q9NRH2); conditions: Compound concentration 1000.0 nM
[43] = biological target: Tyrosine-protein kinase JAK3 (Homo sapiens) (UniProt P52333); conditions: Compound concentration 1000.0 nM
[44] = biological target: Serine/threonine-protein kinase RIO1 (Homo sapiens) (UniProt Q9BRS2); conditions: Compound concentration 1000.0 nM
[45] = biological target: 5-hydroxytryptamine receptor 3A (Homo sapiens) (UniProt P46098); conditions: Compound concentration 10.0 uM

CN([C@@H]1CCc2c(CC(=O)O)c3cc(S(C)(=O)=O)ccc3n2C1)S(=O)(=O)c1ccc(F)cc1
inactive: residual activity [1] 90% | residual activity [2] 100% | residual activity [3] 100% | residual activity [4] 90% | residual activity [5] 90% | residual activity [6] 100% | residual activity [7] 81% | residual activity [8] 95% | residual activity [9] 98% | residual activity [10] 99% | residual activity [11] 81% | residual activity [12] 91% | residual activity [13] 85% | residual activity [14] 100% | inhibition [15] 16% | residual activity [16] 100% | residual activity [17] 80% | residual activity [18] 100% | residual activity [19] 100% | residual activity [20] 100% | residual activity [21] 82% | residual activity [22] 100% | residual activity [23] 91% | residual activity [24] 93% | residual activity [25] 100% | residual activity [26] 97% | residual activity [27] 100% | residual activity [28] 70% | residual activity [29] 85% | residual activity [30] 86% | residual activity [31] 100% | residual activity [32] 100% | residual activity [33] 92% | residual activity [34] 100% | residual activity [35] 100% | residual activity [36] 100% | residual activity [37] 96% | residual activity [38] 100% | residual activity [39] 100% | residual activity [40] 100% | residual activity [41] 79% | residual activity [42] 100% | residual activity [43] 100% | residual activity [44] 100% | inhibition [45] -2.99%

CN([C@@H]1CCc2c(CC(=O)O)c3ccccc3n2C1)S(=O)(=O)c1ccc(F)cc1 [MK-7246]
inactive: residual activity [1] 87% | residual activity [2] 100% | residual activity [3] 100% | residual activity [4] 77% | residual activity [5] 100% | residual activity [6] 100% | residual activity [7] 70% | residual activity [8] 96% | residual activity [9] 100% | residual activity [10] 100% | residual activity [11] 100% | residual activity [12] 99% | residual activity [13] 100% | residual activity [14] 94% | inhibition [15] 25.9% | residual activity [16] 100% | residual activity [17] 95% | residual activity [18] 100% | residual activity [19] 100% | residual activity [20] 100% | residual activity [21] 100% | residual activity [22] 100% | residual activity [23] 100% | residual activity [24] 100% | residual activity [25] 100% | residual activity [26] 93% | residual activity [27] 100% | residual activity [28] 85% | residual activity [29] 100% | residual activity [30] 100% | residual activity [31] 100% | residual activity [32] 100% | residual activity [33] 79% | residual activity [34] 100% | residual activity [35] 100% | residual activity [36] 100% | residual activity [37] 100% | residual activity [38] 100% | residual activity [39] 100% | residual activity [40] 100% | residual activity [41] 87% | residual activity [42] 100% | residual activity [43] 98% | residual activity [44] 100% | inhibition [45] -3.85%

Reference: ChEMBL document CHEMBL4507290 (2021)
